Reference: patent US8193203B2, “Bicyclic compounds having activity at the CXCR4 receptor” (Allergan, Inc., priority 2008, dated 2012)

Target: T1, human CXCR4 receptor (Homo sapiens, UniProt P61073)
T1 construct: expressed in transfected cells
Assay: Measurement of intracellular Ca+2 responses (FLIPR), antagonism of the SDF-1α response
Format: cell-based
Details: for IC50: HEK-Gqi5 cells stably expressing human CXCR4, Fluo-4 FLIPR, antagonism of SDF-1α 1.9 nM (EC65); for CXCR4 (% Inh): percent antagonism of SDF-1α 1.9 nM (EC65) response, HEK-Gqi5 human CXCR4 cells, value in brackets
Procedure: Measurement of Intracellular Ca^+2 Responses for CXCR4 Compounds
HEK-Gqi5 cells stably expressing the human CXCR4 receptor were utilized for these studies. The growth media for the CXCR4 receptor expressing cell line was DMEM high glucose medium supplemented with 10% fetal bovine serum (FBS), 1% antibiotic-antimycotic, 50 ug/ml hygromycin B, and 400 μg/ml geneticin. Ten thousand cells per well were plated into 384-well poly-D-lysine coated plates one day prior to use. On the day of the experiment, the cells were washed twice with Hank's Balanced Salt Solution supplemented with 20 mM hepes (HBSS/hepes buffer). The cells were then dye loaded with 2 uM Fluo-4 diluted in the HBSS/Hepes buffer and incubated at 37° C. for 40 minutes. Extracellular dye was removed by washing the cell plates four times prior to placing the plates in the FLIPR (Fluorometric Imaging Plate Reader, Molecular Devices). Ligands were diluted in HBSS/Hepes buffer and prepared in 384-well microplates. The positive control, stromal-cell derived factor-1 (SDF-1α), was diluted in HBSS/Hepes buffer with 4 mg/ml fatty acid free bovine serum albumin. Two drug additions were made by the FLIPR. The first drug addition was the test drug in concentrations ranging from 2.44 nM to 40,000 nM. After this addition, fluorescent measurements were taken. Any calcium release in response to this drug addition represents agonist activity of the compounds. The second drug addition was SDF-1α at a final concentration of 1.9 nM (EC65). Fluorescence measurements were also taken after this second drug addition and were used to determine the ability of the test compounds to antagonize the SDF-1α response. Results were expressed as EC50 and efficacy values, as well as IC50 and percent antagonism values. As controls, SDF-1α (CXCR4 agonist) and AMD3100 (CXCR4 antagonist) dose-response curves were also determined in each study.

T1 sequence (P61073 whole entry): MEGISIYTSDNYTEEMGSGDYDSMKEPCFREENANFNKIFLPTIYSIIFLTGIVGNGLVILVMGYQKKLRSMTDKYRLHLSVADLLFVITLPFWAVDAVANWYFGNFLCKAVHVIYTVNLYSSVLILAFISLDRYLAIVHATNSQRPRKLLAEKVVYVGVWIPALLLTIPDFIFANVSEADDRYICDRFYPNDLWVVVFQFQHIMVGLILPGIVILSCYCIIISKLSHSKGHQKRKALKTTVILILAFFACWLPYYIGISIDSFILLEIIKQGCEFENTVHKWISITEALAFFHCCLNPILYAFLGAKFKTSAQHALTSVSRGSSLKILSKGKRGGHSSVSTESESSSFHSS

IC50 (values given in μM) [µM] | CXCR4 (% Inh) [%] | IC50 (values in nM) [µM] | IC50 (unit of the source corrected, heading: CXCR4 IC50, values given in μM) [µM] | SMILES
– | 99 | 0.069 | – | COc1cc2nc(NCCCO)nc(NC3CCN(Cc4c(OCCN(C)C)cccc4N(C)C)CC3)c2cc1OC [Compound 207, 3-({4-[(1-{2-(Dimethylamino)-6-[2-(dimethylamino)ethoxy]benzyl}piperidin-4-yl)amino]-6,7-dimethoxyquinazolin-2-yl}amino)propan-1-ol]
– | 94 | 0.049 | – | CCN(CC)CCCNc1nc(NC2CCN(Cc3c(OCCN(C)C)cccc3N(C)C)CC2)c2cc(OC)c(OC)cc2n1 [Compound 166, N˜2˜-[3-(Diethylamino)propyl]-N˜4˜-(1-{2-(dimethylamino)-6-[2-(dimethylamino)ethoxy]benzyl}piperidin-4-yl)-6,7-dimethoxyquinazoline-2,4-diamine]
– | 100 | 0.032 | – | COc1cc2nc(NCc3cc[nH]n3)nc(NC3CCN(Cc4c(OCCN(C)C)cccc4N(C)C)CC3)c2cc1OC [Compound 216, N˜4˜-(1-{2-(Dimethylamino)-6-[2-(dimethylamino)ethoxy]benzyl}piperidin-4-yl)-6,7-dimethoxy-N˜2˜-(1H-pyrazol-3-ylmethyl)quinazoline-2,4-diamine]
– | 96 | 0.016 | – | COc1cc2nc(NCc3c[nH]cn3)nc(NC3CCN(Cc4c(OCCN(C)C)cccc4N(C)C)CC3)c2cc1OC [Compound 206, N˜4˜-(1-{2-(Dimethylamino)-6-[2-(dimethylamino)ethoxy]benzyl}piperidin-4-yl)-N˜2˜-(1H-imidazol-4-ylmethyl)-6,7-dimethoxyquinazoline-2,4-diamine]
– | 92 | 0.695 | – | COc1cc2nc(NCCCN(C)C)nc(NC3CCN(Cc4ccccc4N(C)C(C)C)CC3)c2cc1OC [Compound 224, N2-(3-(Dimethylamino)propyl)-N4-(1-(2-(isopropyl(methyl)amino)benzyl)piperidin-4-yl)-6,7-dimethoxyquinazoline-2,4-diamine]
– | 96 | 0.041 | – | COc1cc2nc(NCCN(C)C)nc(NC3CCN(Cc4c(OCCN(C)C)cccc4N(C)C)CC3)c2cc1OC [Compound 229, N4-(1-(2-(Dimethylamino)-6-(2-(dimethylamino)ethoxy)benzyl)piperidin-4-yl)-N2-(2-(dimethylamino)ethyl)-6,7-dimethoxyquinazoline-2,4-diamine]
– | 97 | 0.56 | – | COc1cccc(N(C)C)c1CN1CCC(Nc2nc(NCCN3CCN(C)CC3)nc3ccccc23)CC1 [Compound 154, N˜4˜-{1-[2-(Dimethylamino)-6-methoxybenzyl]piperidin-4-yl}-N˜2˜-[2-(4-methylpiperazin-1-yl)ethyl]quinazoline-2,4-diamine]

More lines, now with the values behind:

SMILES | IC50 (values given in μM) [µM] | CXCR4 (% Inh) [%] | IC50 (values in nM) [µM] | IC50 (unit of the source corrected, heading: CXCR4 IC50, values given in μM) [µM]
CCN(CC)CCCNc1nc(NC2CCN(Cc3ccccc3N)CC2)c2ccccc2n1 [Compound 149, N˜4˜-[1-(2-Aminobenzyl)piperidin-4-yl]-N˜2˜-[3-(diethylamino)propyl]quinazoline-2,4-diamine] | > 10 | 68 | – | –
COc1cccc(N(C)C)c1CN1CCC(Nc2nc(N3CC(CN(C)C(=O)OC(C)(C)C)C3)nc3ccccc23)CC1 [Compound 103, tert-Butyl (1-(4-(1-(2-(Dimethylamino)-6-methoxybenzyl)piperidin-4-ylamino)quinazolin-2-yl)azetidin-3-yl)methyl(methyl)carbamate] | 4.1 | 82 | – | –
CCN(CC)CCCNc1nc(NC2CCN(Cc3c(OC)cccc3N(C)C)CC2)c2ccccc2n1 [Compound 48, N2-(3-(Diethylamino)propyl)-N4-(1-(2-(dimethylamino)-6-methoxybenzyl)piperidin-4-yl)quinazoline-2,4-diamine] | – | 100 | 0.15 | –
COc1cccc(N(C)C)c1CN1CCC(Nc2nc(NC[C@H]3CCNC3)nc3ccccc23)CC1 [Compound 111, (S)—N-4-(1-(2-(Dimethylamino)-6-methoxybenzyl)piperidin-4-yl)-N2-(pyrrolidin-3-ylmethyl)quinazoline-2,4-diamine] | – | 98 | – | 0.224
COc1cccc(N(C)C)c1CN1CCC(Nc2nc(NCCCN(C)C)nc3ccccc23)CC1 [Compound 68, N4-(1-(2-(Dimethylamino)-6-methoxybenzyl)piperidin-4-yl)-N2-(3-(dimethylamino)propyl)quinazoline-2,4-diamine] | – | 95 | 0.041 | –
CCN(CC)CCCNc1nc(NC2CCN(Cc3ccccc3N3CCCCC3)CC2)c2cc(OC)c(OC)cc2n1 [Compound 50] | 6.7 | 86 | – | –
COc1cccc(N(C)C)c1CN1CCC(Nc2nc(NCCN3CC(C)OC(C)C3)nc3ccccc23)CC1 (centres unmarked) [Compound 95, N4-(1-(2-(Dimethylamino)-6-methoxybenzyl)piperidin-4-yl)-N2-(2-(2,6-dimethylmorpholino)ethyl)quinazoline-2,4-diamine] | – | 98 | 0.605 | –
COc1cccc(N(C)C)c1CN1CCC(Nc2nc(NC[C@H]3CCN(C(=O)OC(C)(C)C)C3)nc3ccccc23)CC1 [Compound 110, (R)-tert-Butyl 3-((4-(1-(2-(Dimethylamino)-6-methoxybenzyl)piperidin-4-ylamino)quinazolin-2-ylamino)methyl)pyrrolidine-1-carboxylate] | 2.2 | 81 | – | –
CCN(CC)C(=O)CCNc1nc(NC2CCN(Cc3ccccc3N(C)C)CC2)c2cc(OC)c(OC)cc2n1 [Compound 31] | 2.4 | 92 | – | –
COc1cccc(N(C)C)c1CN1CCC(Nc2nc(NCC(F)(F)F)nc3ccccc23)CC1 [Compound 93, N4-(1-(2-(Dimethylamino)-6-methoxybenzyl)piperidin-4-yl)-N2-(2,2,2-trifluoroethyl)quinazoline-2,4-diamine] | 4.3 | 79 | – | –
CCN(CC)CCCCCNc1nc(NC2CCN(Cc3c(OC)cccc3N(C)C)CC2)c2ccccc2n1 [Compound 67, N2-(5-(Diethylamino)pentyl)-N4-(1-(2-(dimethylamino)-6-methoxybenzyl)piperidin-4-yl)quinazoline-2,4-diamine] | 1.9 | 88 | – | –
COc1cccc(N(C)C)c1CN1CCC(Nc2nc(N(CCO)C(C)=O)nc3ccccc23)CC1 [Compound 90, N-(4-(1-(2-(Dimethylamino)-6-methoxybenzyl)piperidin-4-ylamino)quinazolin-2-yl)-N-(2-hydroxyethyl)acetamide] | 1.5 | 93 | – | –
COc1cc2nc(NCCCN(C)C)nc(NC3CCN(Cc4c(OC)cccc4N(C)C)CC3)c2cc1OC [Compound 78] | – | 100 | 0.283 | –
COc1cccc(N(C)C)c1CN1CCC(Nc2nc(NC3CCN(C)CC3)nc3ccccc23)CC1 [Compound 94, N4-(1-(2-(Dimethylamino)-6-methoxybenzyl)piperidin-4-yl)-N2-(1-methylpiperidin-4-yl)quinazoline-2,4-diamine] | – | 96 | 0.79 | –
CCN(CC)CCNc1nc(NC2CCN(Cc3c(OC)cccc3N(C)C)CC2)c2cc(OC)c(OC)cc2n1 [Compound 41, N2-(2-(Diethylamino)ethyl)-N4-(1-(2-(dimethylamino)-6-methoxybenzyl)piperidin-4-yl)-6,7-dimethoxyquinazoline-2,4-diamine] | – | 100 | 0.36 | –
